≈ marks a conversion by molar mass, not a printed value.
Key:
Type in all cases: functional
Aspergillus niger [1] = test: Antifungal activity against Aspergillus niger MTCC 2546 assessed as growth inhibition after 24 hr by tube dilution method; conditions: MTCC 2546, 24 h
Penicillium chrysogenum [2] = test: Antifungal activity against Penicillium chrysogenum MTCC 161 assessed as growth inhibition after 24 hr by tube dilution method; conditions: MTCC 161, 24 h
Penicillium chrysogenum [3] = test: Antifungal activity against Penicillium chrysogenum MTCC 161 assessed as growth inhibition at 10 ug/mL after 48 hr by agar diffusion method; conditions: MTCC 161, 48 h, read-out: DIZ
Aspergillus niger [4] = test: Antifungal activity against Aspergillus niger MTCC 2546 assessed as growth inhibition at 10 ug/mL after 48 hr by agar diffusion method; conditions: MTCC 2546, 48 h, read-out: DIZ
Micrococcus luteus [5] = test: Antibacterial activity against Micrococcus luteus MTCC 1538 assessed as growth inhibition after 24 hr by tube dilution method; conditions: MTCC 1538, 24 h
Pseudomonas aeruginosa [6] = test: Antibacterial activity against Pseudomonas aeruginosa MTCC 424 assessed as growth inhibition after 24 hr by tube dilution method; conditions: MTCC 424, 24 h
Pseudomonas fluorescens [7] = test: Antibacterial activity against Pseudomonas fluorescens MTCC 2421 assessed as growth inhibition after 24 hr by tube dilution method; conditions: MTCC 2421, 24 h
Bacillus pumilus [8] = test: Antibacterial activity against Bacillus pumilus MTCC 1456 assessed as growth inhibition after 24 hr by tube dilution method; conditions: MTCC 1456, 24 h
Staphylococcus aureus [9] = test: Antibacterial activity against Staphylococcus aureus MTCC 1430 assessed as growth inhibition after 24 hr by tube dilution method; conditions: MTCC 1430, 24 h
Bacillus subtilis [10] = test: Antibacterial activity against Bacillus subtilis MTCC 441 assessed as growth inhibition after 24 hr by tube dilution method; conditions: MTCC 441, 24 h
Bacillus subtilis [11] = test: Antibacterial activity against Bacillus subtilis MTCC 441 assessed as growth inhibition at 10 ug/mL after 48 hr by agar diffusion method; conditions: MTCC 441, 48 h, read-out: DIZ
Pseudomonas fluorescens [12] = test: Antibacterial activity against Pseudomonas fluorescens MTCC 2421 assessed as growth inhibition at 10 ug/mL after 48 hr by agar diffusion method; conditions: MTCC 2421, 48 h, read-out: DIZ
Bacillus pumilus [13] = test: Antibacterial activity against Bacillus pumilus MTCC 1456 assessed as growth inhibition at 10 ug/mL after 48 hr by agar diffusion method; conditions: MTCC 1456, 48 h, read-out: DIZ
Staphylococcus aureus [14] = test: Antibacterial activity against Staphylococcus aureus MTCC 1430 assessed as growth inhibition at 10 ug/mL after 48 hr by agar diffusion method; conditions: MTCC 1430, 48 h, read-out: DIZ
Micrococcus luteus [15] = test: Antibacterial activity against Micrococcus luteus MTCC 1538 assessed as growth inhibition at 10 ug/mL after 48 hr by agar diffusion method; conditions: MTCC 1538, 48 h, read-out: DIZ
Escherichia coli = test: Antibacterial activity against Escherichia coli MTCC 1573 assessed as growth inhibition at 10 ug/mL after 48 hr by agar diffusion method; conditions: MTCC 1573, 48 h, read-out: DIZ
Pseudomonas aeruginosa [16] = test: Antibacterial activity against Pseudomonas aeruginosa MTCC 424 assessed as growth inhibition at 10 ug/mL after 48 hr by agar diffusion method; conditions: MTCC 424, 48 h, read-out: DIZ

| Structure (SMILES) | MIC (Aspergillus niger [1]) | MIC (Penicillium chrysogenum [2]) | zone of inhibition at 10 µg/mL (Penicillium chrysogenum [3]) | zone of inhibition at 10 µg/mL (Aspergillus niger [4]) | MIC (Micrococcus luteus [5]) | MIC (Pseudomonas aeruginosa [6]) | MIC (Pseudomonas fluorescens [7]) | MIC (Bacillus pumilus [8]) | MIC (Staphylococcus aureus [9]) | MIC (Bacillus subtilis [10]) | zone of inhibition at 10 µg/mL (Bacillus subtilis [11]) | zone of inhibition at 10 µg/mL (Pseudomonas fluorescens [12]) | zone of inhibition at 10 µg/mL (Bacillus pumilus [13]) | zone of inhibition at 10 µg/mL (Staphylococcus aureus [14]) | zone of inhibition at 10 µg/mL (Micrococcus luteus [15]) | zone of inhibition at 10 µg/mL (Escherichia coli) | zone of inhibition at 10 µg/mL (Pseudomonas aeruginosa [16]) |
| --- | --- | --- | --- | --- | --- | --- | --- | --- | --- | --- | --- | --- | --- | --- | --- | --- | --- |
| OC(Cn1cncn1)(Cn1cncn1)c1ccc(F)cc1F [FLUCONAZOLE] | 2.5 µg/mL (≈ 8.16 µM) | 1.25 µg/mL (≈ 4.08 µM) | 23 mm | 22 mm | – | – | – | – | – | – | – | – | – | – | – | – | – |
| CCn1cc(C(=O)O)c(=O)c2cc(F)c(N3CCNCC3)cc21 [NORFLOXACIN] | – | – | – | – | 2.5 µg/mL (≈ 7.83 µM) | 2.5 µg/mL (≈ 7.83 µM) | 2.5 µg/mL (≈ 7.83 µM) | 1.25 µg/mL (≈ 3.91 µM) | 5 µg/mL (≈ 15.7 µM) | 2.5 µg/mL (≈ 7.83 µM) | 25 mm | 27 mm | 30 mm | 22 mm | 24 mm | 25 mm | 26 mm |

Reference: ChEMBL document CHEMBL3046001, “4-Thiazolidinone and 1-thia-3,4,9-triaza fluorene conjugates: synthesis, characterization and antimicrobial screening” (2013)
